The values below come from patent US12605453B2, “CP2C-targeting peptide-based anticancer agent” (Industry-University Cooperation Foundation Hanyang …, priority 2019, dated 2026).

Series [1] can be described thus: ELISA for antibody formation in sera of injected rabbits (immunogenicity). The note with it: rabbit, in vivo. An excerpt:
To verify this, immunogenicity of ACP52CG and ACP52CK was directly tested in the process of deriving the final new drug candidate. Since the final candidate material might be a C-16 palmitoyl acid-conjugated ACP52C peptide, which is not different with ACP52CG and ACP52CK in terms of chemical composition, it was decided to analyze whether antibodies were formed on ACP52CG and ACP52CK. […] Therefore, it was concluded that the final candidate material (ACP52CGK) would also not show immunogenicity in the human body (FIG. 21).

For series [2], the system named is Hep3B xenograft mice. The class given is in vivo. The note with it: tail vein 5 times at 3-day intervals. As for the experimental part: To analyze the anticancer efficacy of the CP2c target peptide-fatty acid conjugates synthesized in Preparation Example 2 in animal models, ACP52CG and ACP52CK were injected into the Hep3B xenograft mice via tail vein 5 times at 3-day intervals.
ACP52CGK was injected into the Hep3B xenograft mice via tail vein at 3 different concentrations (1.39, 2.77, or 5.54 mg/kg) 5 times at 3-day intervals. The tumor volume was measured at every three days after drug injection. The tumor and major tissues were excised from the mice sacrificed on the 24th day after the tumor cell injection. The tumor was weighed and fixed with 4% formaldehyde together with major organs. After making tissue slides through paraffin sections, hematoxylin/eosin staining was performed. The collected blood samples were subjected to basic CBC analysis using a Coulter LH 750 hematology analyzer. The acquired data were statistically processed using an Excel program.
ACP52CGK was injected into Hep3B xenograft mice via tail vein 5 times at intervals of 5 days at 3 different concentrations (1.39, 2.77, 5.54 mg/kg), and the anticancer effect was evaluated in the same manner as described above. […] As a result of a comprehensive analysis of all the results, 2.77 mg/kg was the optimal concentration.

Series [3] relates to MDA-MB-231 (LM1) xenograft mice. The class given is in vivo. The note with it: tail vein 5 times at 3-day intervals. The method, then: The anticancer effect of ACP52CGK was analyzed in MDA-MB-231 (LM1) xenograft mice in the same manner as in the Hep3B xenograft mouse model experiments.
Series [4] has as its system liver cancer induced by DEN treatment. The series is described as follows: Liver cancer mouse model induced by DEN treatment. The class given is in vivo. The note with it: for efficacy: mice 15 weeks after DEN treatment. As for the experimental part:
In addition, […] (7 to 8 mice/group), such as a control group (mock) treated with only a vehicle, a sorafenib group (an approved drug for liver cancer treatment), and an ACP52CG-GFLGE (SEQ ID NO: 16) (ACP52CK) group. The drug was injected through the tail vein a total of 12 times at a concentration of 5 mg/kg at 3-day intervals.

In series [5] the test system is various cancer cell lines. The series is described as follows: In vitro anticancer effect of C16 fatty acid-binding peptides in various cancer cells. The series is classed as cell-based. The note with it: for GI50 values compared with control (ACP52C): 48 hours after treatment; for cancer cell-specific cell death: compared with control ACP52C.
Method: The anticancer effect of the CP2c-targeting peptide-fatty acid conjugate synthesized in Preparation Example 2 was analyzed in various cancer cells.
For series [6], the system named is caspase2. Briefly: Immunoblot of MDM2p90 and MDM2p60 after caspase2 inhibitor treatment. The series is classed as cell-based. The note with it: lung cancer cells. The method, then:
Meanwhile, when a caspase2 inhibitor (AC-VDVAD (SEQ ID NO: 11)-CHO) was treated to identify a phenomenon that occurs due to the high activity of caspase2 specifically in lung cancer cells, it was found by immunoblot that the protein amount of MDM2p90 increased, while the protein amount of MDM2p60 decreased according to the treatment with the Caspase2 inhibitor. Therefore, we concluded that the MDM2p60 form, which is overexpressed in lung cancer cells, is the result of cleavage of MDM2p90 by caspase2. […] As a result, efficacy was observed around GI50˜1 μM in the group treated with the combination of the caspase 2 inhibitor and ACP52C (FIGS. 34a to 34d, FIG. 35).

Where a SMILES comes first, the peptide text is derived from it. Bridges are numbered along the chain shown (N, C = ends). Roman numbers before positions name the chains, in order. Side-chain parts run from the residue outwards. The star is where a group is joined. Palmitoyl = CCCCCCCCCCCCCCCC(=O)*

For the compound `CCCCCCCCCCCCCCCC(=O)N[C@@H](CCC(=O)O)C(=O)NCCCC[C@H](NC(C)=O)C(=O)NCC(=O)NCC(=O)N[C@@H](CC(N)=O)C(=O)N[C@@H](Cc1ccc(O)cc1)C(=O)N1CCC[C@H]1C(=O)N[C@@H](CCC(N)=O)C(=O)N[C@@H](CCCNC(=N)N)C(=O)N1CCC[C@H]1C(=O)N[C@@H](CS)C(=O)N[C@@H](CCCNC(=N)N)C(=O)NCC(=O)N[C@@H](CC(=O)O)C(=O)N[C@@H](CCCCN)C(=O)NCC(=O)N1CCC[C@H]1C(=O)N[C@@H](CC(=O)O)C(=O)N[C@@H](CS)C(N)=O` [ACP52CG] (Ac-K([Glu-Palmitoyl])GGNYPQRPCRGDKGPDC-NH2), in series [1], the “immune response of sera from rabbits injected with ACP52CG and ACP52CK three times (ELISA)” value is reported as “did not induce immune responses”. In addition, in series [2], the anticancer efficacy result is “showed similar efficacy to sorafenib, but their efficacy was inferior to that of ACP52C”. In addition, the anticancer effect result in series [3] is given as “showed tumor regression efficacy, but the anticancer effect was not significant”. Besides, the efficacy entry in series [4] is reported as “superior to another control, FQI1, but did not show any superior efficacy compared to ACP52C”. Moreover, in series [5], the “GI50 values compared with control (ACP52C)” value is given as “like or more efficient than that of the control” and the “cancer cell-specific cell death” value is “induced cancer cell-specific cell death similarly to the control group”.

As for `CCCCCCCCCCCCCCCC(=O)NCC(=O)N[C@@H](Cc1ccccc1)C(=O)N[C@@H](CC(C)C)C(=O)NCC(=O)N[C@@H](CCC(=O)O)C(=O)NCCCC[C@H](NC(C)=O)C(=O)NCC(=O)NCC(=O)N[C@@H](CC(N)=O)C(=O)N[C@@H](Cc1ccc(O)cc1)C(=O)N1CCC[C@H]1C(=O)N[C@@H](CCC(N)=O)C(=O)N[C@@H](CCCNC(=N)N)C(=O)N1CCC[C@H]1C(=O)N[C@@H](CS)C(=O)N[C@@H](CCCNC(=N)N)C(=O)NCC(=O)N[C@@H](CC(=O)O)C(=O)N[C@@H](CCCCN)C(=O)NCC(=O)N1CCC[C@H]1C(=O)N[C@@H](CC(=O)O)C(=O)N[C@@H](CS)C(N)=O` [ACP52CK] (I: Ac-KGGNYPQRPCRGDKGPDC-NH2 / II: Palmitoyl-GFLGE; amide I:1-II:C), in series [1], the “immune response of sera from rabbits injected with ACP52CG and ACP52CK three times (ELISA)” value was “did not induce immune responses”. For the same compound, the anticancer efficacy entry in series [2] is given as “showed similar efficacy to sorafenib, but their efficacy was inferior to that of ACP52C”. Also, in series [3], the anticancer effect result was “showed tumor regression efficacy, but the anticancer effect was not significant”. For the same compound, the efficacy entry in series [4] is “superior to another control, FQI1, but did not show any superior efficacy compared to ACP52C”. Besides, in series [5], the “GI50 values compared with control (ACP52C)” value was “like or more efficient than that of the control” and the “cancer cell-specific cell death” value was “induced cancer cell-specific cell death similarly to the control group”.

With `CNC(=O)c1cc(Oc2ccc(NC(=O)Nc3ccc(Cl)c(C(F)(F)F)c3)cc2)ccn1` [sorafenib, reference compound], the “anticancer effect compared to the control group” value in series [4] (mice 22 weeks after DEN treatment, 5 mg/kg tail vein 12 times at 3-day intervals) is recorded as “significant anticancer effect (p=0.04)”.

Take “AC-VDVAD (SEQ ID NO: 11)-CHO (Ac-VDVAD-aldehyde) [caspase2 inhibitor]”: in series [6], the “protein amount of MDM2p60” value is “decreased” and the “protein amount of MDM2p90” value was “increased”.
